Assay results from patent US9126944B2, “Phenylpyrazole derivatives as potent ROCK1 and ROCK2 inhibitors” (BRISTOL-MYERS SQUIBB COMPANY, priority 2013, dated 2015).
Like-named read-outs stand apart in the source and are kept apart here.

What was measured:
[1] = target: ROCK1 (Homo sapiens, UniProt Q13464); test: ROCK assay (LabChip peptide phosphorylation), ROCK1; format: biochemical; conditions: 5 μM ATP, 1.5 μM peptide substrate
[2] = tested on: three rat models of hypertension; conditions: cited from earlier work
[3] = tested on: neointimal formation; conditions: rats, model similar to balloon injury; cited from earlier work
[4] = tested on: IL-1 beta-induced coronary stenosis; conditions: porcine model, long term treatment; cited from earlier work

ROCK1, sequence (Q13464 whole entry, species assumed): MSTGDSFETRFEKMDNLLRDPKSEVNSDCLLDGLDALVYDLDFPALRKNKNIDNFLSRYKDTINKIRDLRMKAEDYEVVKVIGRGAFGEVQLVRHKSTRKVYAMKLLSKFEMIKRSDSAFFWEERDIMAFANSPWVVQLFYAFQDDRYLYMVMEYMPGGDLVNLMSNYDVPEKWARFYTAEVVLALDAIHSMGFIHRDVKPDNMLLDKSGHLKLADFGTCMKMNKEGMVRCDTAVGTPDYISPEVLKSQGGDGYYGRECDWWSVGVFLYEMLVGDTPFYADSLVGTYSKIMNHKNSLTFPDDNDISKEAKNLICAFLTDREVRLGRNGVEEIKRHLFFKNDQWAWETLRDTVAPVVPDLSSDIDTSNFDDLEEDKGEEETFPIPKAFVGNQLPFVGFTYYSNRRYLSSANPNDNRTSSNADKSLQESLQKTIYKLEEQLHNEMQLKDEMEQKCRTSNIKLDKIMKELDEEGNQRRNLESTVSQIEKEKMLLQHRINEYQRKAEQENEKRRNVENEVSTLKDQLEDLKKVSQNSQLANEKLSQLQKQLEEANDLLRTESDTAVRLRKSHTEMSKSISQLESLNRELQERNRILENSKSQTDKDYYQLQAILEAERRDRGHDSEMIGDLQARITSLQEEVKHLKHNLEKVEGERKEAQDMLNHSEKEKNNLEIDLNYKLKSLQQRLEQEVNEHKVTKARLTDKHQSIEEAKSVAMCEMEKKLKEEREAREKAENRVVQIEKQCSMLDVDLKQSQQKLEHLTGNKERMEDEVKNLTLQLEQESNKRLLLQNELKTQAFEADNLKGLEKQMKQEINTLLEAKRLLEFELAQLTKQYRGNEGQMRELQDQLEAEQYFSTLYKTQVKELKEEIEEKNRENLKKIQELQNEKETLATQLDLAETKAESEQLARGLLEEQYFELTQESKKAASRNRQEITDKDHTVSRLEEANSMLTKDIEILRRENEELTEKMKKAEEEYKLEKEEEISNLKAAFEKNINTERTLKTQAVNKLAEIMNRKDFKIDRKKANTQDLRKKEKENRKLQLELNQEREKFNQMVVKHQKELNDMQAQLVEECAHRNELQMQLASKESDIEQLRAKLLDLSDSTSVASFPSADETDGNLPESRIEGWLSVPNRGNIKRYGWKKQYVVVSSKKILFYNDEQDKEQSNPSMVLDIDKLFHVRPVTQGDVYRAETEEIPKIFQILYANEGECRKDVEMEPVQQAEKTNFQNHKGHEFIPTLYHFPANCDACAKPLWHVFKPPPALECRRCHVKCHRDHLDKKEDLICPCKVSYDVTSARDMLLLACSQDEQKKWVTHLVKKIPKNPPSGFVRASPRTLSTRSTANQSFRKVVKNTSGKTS

COC(=O)c1cccc(CNC(=O)c2ccc(-c3cn[nH]c3)c(OC)c2)c1 [Example 8, methyl 3-((3-methoxy-4-(1H-pyrazol-4-yl)benzamido)methyl)benzo-ate]
IC50 [1]: 2.63 nM

COc1cc(C(=O)NC(C)c2cc(F)cc(F)c2)ccc1-c1cn[nH]c1 (racemic) [Example 67, (+/−)-N-(1-(3,5-difluorophenyl)ethyl)-3-methoxy-4-(1H-pyrazol-4-yl)benzamide]
IC50 [1]: 26.5 nM

C[C@@H](N)[C@H]1CC[C@H](C(=O)Nc2ccncc2)CC1 [Example Y-27632, Y-27632]
blood pressure ([2]; control rats): only a minor effect on blood pressure | blood pressure ([2]; spontaneously hypertensive rat, renal hypertensive rat and deoxycortisone acetate salt hypertensive rat models): significantly decrease blood pressure | neointimal formation [3]: inhibited neointimal formation

O=S(=O)(c1cccc2cnccc12)N1CCCNCC1 [fasudil]
coronary constrictive remodeling [4]: promote a regression of coronary constrictive remodeling | coronary stenosis [4]: progressively reduce coronary stenosis

COc1cc(C(=O)NCc2cccc(O)c2)ccc1-c1cn[nH]c1 [Example 6, N-(3-hydroxybenzyl)-3-methoxy-4-(1H-pyrazol-4-yl)benzamide]
IC50 [1]: 0.85 nM

CNC(=O)c1cccc(CNC(=O)c2ccc(-c3cn[nH]c3)c(OC)c2)c1 [Example 65, 3-methoxy-N-(3-(methylcarbamoyl)benzyl)-4-(1H-pyrazol-4-yl)benzamide]
IC50 [1]: 3.05 nM
